According to patent publication US20220127281A1, “HETEROARYL COMPOUNDS THAT INHIBIT G12C MUTANT RAS PROTEINS” (AstraZeneca AB, priority 2017, published 2022):
Where two headings read alike, the source gives them in different places.

Assays:
[1] = molecular target: T1, GDP loaded biotinylated KRas^G12C protein (Homo sapiens, UniProt P01116, G12C); assay: KRasG12C functional assay; assay type: biochemical; conditions: HTRF FRET readout of SOS-mediated nucleotide exchange and GST-Raf RBD binding, samples incubated for 4 hrs
T1 construct: biotin (biotinylated); made in house
T1 sequence (P01116 1-188 isoform P01116-2 G12C): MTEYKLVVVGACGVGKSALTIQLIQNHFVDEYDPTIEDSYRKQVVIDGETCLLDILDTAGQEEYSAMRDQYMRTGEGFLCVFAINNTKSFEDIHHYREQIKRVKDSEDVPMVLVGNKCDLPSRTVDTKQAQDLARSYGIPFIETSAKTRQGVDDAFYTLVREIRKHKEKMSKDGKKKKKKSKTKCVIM
Method: KRasG12C Functional Assay
All enzyme and substrate solutions were prepared in assay buffer containing 20 mM HEPES (pH 7.5), 5 mM MgCl2, 150 mM NaCl, and 0.01% Tween 20. […] In a separate mix 20 nM GST-Raf Ras binding domain (GST-Raf RBD, purified in house) and 4 μg/ml anti-GST XL665 antibody (Cisbio) was prepared in assay buffer containing 50 mM Potassium Fluoride and 0.05 mg/ml BSA and equilibrated for 4 hours before adding 0.6 μM Guanosine 5′-[γ-thio]triphosphate (GTPγS, Sigma) and 0.08 μM SOS (purified in house). 5 μl of the GST-RAF RBD mix was then dispensed into each well of the assay plate. […] This is detected simultaneously via the specific binding interaction between active GTPγS KRas^G12C with GST-Raf RBD which brings the europium and XL665 into close proximity enabling an increased FRET signal to be detected on a Pherastar (BMG) plate reader equipped with the HTRF filter module. […] IC50 values were calculated from normalised dose-response response FRET data curve fitted in Genedata screener (Basel, Switzerland).

[2] = molecular target: T1, GDP loaded biotinylated KRas^G12C protein; assay: KRasG12C mass spectrometry adducting assay; assay type: binding; conditions: test compound final concentration 10 μM, 4 μM KRasG12C, react for 4 hours
Method: KRasG12C Mass Spectrometry Adducting Assay
Enzyme solutions were prepared in assay buffer containing 20 mM HEPES (pH 7.5), 5 mM MgCl2, and 150 mM NaCl. […] The plate was sealed before reading on a Xevo G2 QTOF (Waters) and Acquity LC system (Waters). […] Blank samples were run in between each test sample.
Data was analysed in Mass Lynx software (Waters), the Total ion count (TIC) trace was used and the eluted protein peak data combined. Using the combined spectrum the data was deconvoluted using MaxEnt1 method. The peak area for apo-protein KRas^G12C (APO) and KRAS+relative cmpd mass (adduct) were measured, and a percentage adduct was calculated using the following calculation:
Percent adduct=100*(area of adduct peak/(sum of APO+adduct peaks)

[3] = read-out: KRasG12C functional assay IC50 value
[4] = KRasG12C functional assay IC50 value (μM)

| IC50 [1, 3] [µM] | KRasG12C M.S. Binding Mean adduct % [2] [%] | SMILES | IC50 [1, 4] [µM] |
| --- | --- | --- | --- |
| 1.72 | 0 | C=CC(=O)N1CCN2c3nc(NCCN(C)C)nc4cc(-c5c(C)ccc6[nH]ncc56)c(Cl)c(c34)OC[C@@H]2C1 (single isomer, unassigned) [Example 79] |  |
| 0.018 | 90 | C=CC(=O)N1CCN2c3nc(NCCN(C)C)nc4cc(-c5c(C)ccc6[nH]ncc56)c(Cl)c(c34)OC[C@@H]2C1 (single isomer, unassigned) [Example 80] |  |
| 0.012 | 100 | C=CC(=O)N1CCN2c3ncnc4cc(-c5c(C)ccc6[nH]ncc56)c(Cl)c(c34)OCC[C@@H]2C1 (single isomer, unassigned) [Example 81] |  |
| 0.166 | 26 | C=CC(=O)N1CCN2c3ncnc4cc(-c5c(C)ccc6[nH]ncc56)c(Cl)c(c34)OCC[C@@H]2C1 (single isomer, unassigned) [Example 82] |  |
| 0.518 | 74 | Cc1ccc2[nH]ncc2c1-c1cc2ncnc3c2c(c1Cl)OC[C@@H]1CN(C(=O)/C=C/CN(C)C)CCN31 [Example 4, (E)-1-((8aS)-6-Chloro-5-(5-methyl-1H-indazol-4-yl)-8a,9,11,12-tetrahydropyrazino[2′,1′:3,4][1,4]oxazepino[5,6,7-de]quinazolin-10 (8H)-yl)-4-(dimethylamino)but-2-en-1-one] |  |
| 2.37 | 68 | C=CC(=O)N1CCN2c3ncnc4cc(-c5c(C)ccc6[nH]ncc56)cc(c34)OC[C@H]2C1 [Example 6, 1-[(8aR)-5-(5-Methyl-1H-indazol-4-yl)-8a,9,11,12-tetrahydropyrazino[2′,1′:3,4]-[1,4]oxazepino[5,6,7-de]quinazolin-10 (8H)-yl]prop-2-en-1-one] |  |
| 0.324 | 81 | C=CC(=O)N1CCN2c3ncnc4c(Cl)c(-c5c(C)ccc6[nH]ncc56)cc(c34)OC[C@@H]2C1 [Example 8, 1-[(8aS)-4-Chloro-5-(5-methyl-1H-indazol-4-yl)-8a,9,11,12-tetrahydropyrazino-[2′,1′:3,4][1,4]oxazepino[5,6,7-de]quinazolin-10 (8H)-yl]prop-2-en-1-one] |  |
| 0.381 | 76 | CN(C)C/C=C/C(=O)N1CCN2c3ncnc4cc(-c5c(O)cccc5F)c(Cl)c(c34)OC[C@@H]2C1 [Example 12, (E)-1-((8aS)-6-Chloro-5-(2-fluoro-6-hydroxyphenyl)-8a,9,11,12-tetrahydropyrazino[2′,1′:3,4][1,4]oxazepino[5,6,7-de]quinazolin-10 (8H)-yl)-4-(dimethylamino)but-2-en-1-one] |  |
| 2.54 | 53 | C=CC(=O)N1CCN2c3ncnc4cc(-c5c(C)cnc6[nH]ncc56)c(Cl)c(c34)OC[C@@H]2C1 [Example 14, 1-[(8aS)-6-Chloro-5-(5-methyl-1H-pyrazolo[3,4-b]pyridin-4-yl)-8a,9,11,12-tetrahydro-pyrazino[2′,1′:3,4][1,4]oxazepino[5,6,7-de]quinazolin-10 (8H)-yl]prop-2-en-1-one] |  |

More lines, now with the values behind:

| SMILES | IC50 [1, 3] [µM] | KRasG12C M.S. Binding Mean adduct % [2] [%] | IC50 [1, 4] [µM] |
| --- | --- | --- | --- |
| C=CC(=O)N1CCN2c3ncnc4cc(-c5c(C)ccc6[nH]ncc56)c(Cl)c(c34)OC[C@@H]2C1 [Example 1, 1-[(8aS)-6-Chloro-5-(5-methyl-1H-indazol-4-yl)-8a,9,11,12-tetrahydropyrazino-[2′,1′:3,4][1,4]oxazepino[5,6,7-de]quinazolin-10 (8H)-yl]-2-propen-1-one] |  | 95 | 0.102 |
| C=CC(=O)N1CCN2c3ncnc4cc(-c5c(C)ccc6[nH]ncc56)cc(c34)OC[C@@H]2C1 [Example 5, 1-[(8aS)-5-(5-Methyl-1H-indazol-4-yl)-8a,9,11,12-tetrahydropyrazino[2′,1′:3,4][1,4]-oxazepino[5,6,7-de]quinazolin-10 (8H)-yl]prop-2-en-1-one] | 0.798 | 91 |  |
| C=CC(=O)N1CCN2c3ncnc4cc(-c5c(C)ccc6[nH]ncc56)c(Cl)c(c34)OC[C@H]2C1 [Example 7, 1-[(8aR)-6-Chloro-5-(5-methyl-1H-indazol-4-yl)-8a,9,11,12-tetrahydropyrazino-[2′,1′:3,4][1,4]oxazepino[5,6,7-de]quinazolin-10 (8H)-yl]prop-2-en-1-one] |  | 95 | 0.214 |
| C=CC(=O)N1CCN2c3ncnc4cc(-c5c(O)cccc5F)c(Cl)c(c34)OC[C@@H]2C1 [Example 9, 1-[(8aS)-6-Chloro-5-(2-fluoro-6-hydroxyphenyl)-8a,9,11,12-tetrahydropyrazino-[2′,1′:3,4][1,4]oxazepino[5,6,7-de]quinazolin-10 (8H)-yl]prop-2-en-1-one] | 0.124 | 100 |  |
| C=CC(=O)N1CCN2c3ncnc4cc(-c5cccc6[nH]c(=O)[nH]c56)c(Cl)c(c34)OC[C@@H]2C1 [Example 13, 4-[(8aS)-10-Acryloyl-6-chloro-8,8a,9,10,11,12-hexahydropyrazino[2′,1′:3,4][1,4]-oxazepino[5,6,7-de]quinazolin-5-yl]-1,3-dihydro-2H-benzimidazol-2-one] | 2 | 64 |  |
| C=CC(=O)N1CCN2c3ncnc4cc(-c5ccc6oc(N)nc6c5)c(Cl)c(c34)OC[C@@H]2C1 [Example 21, 1-[(8aS)-5-(2-Amino-1,3-benzoxazol-5-yl)-6-chloro-8a,9,11,12-tetrahydropyrazino[2′,1′:3,4][1,4]-oxazepino[5,6,7-de]quinazolin-10(8H)-yl]prop-2-en-1-one] | 7.18 | 20 |  |
| C=CC(=O)N1CCN2c3ncnc4cc(-c5cccc6c5oc(=O)n6C)c(Cl)c(c34)OC[C@@H]2C1 [Example 22, 7-[(8aS)-10-Acryloyl-6-chloro-8,8a,9,10,11,12-hexahydropyrazino[2′,1′:3,4][1,4]oxazepino[5,6,7-de]quinazolin-5-yl]-3-methyl-1,3-benzoxazol-2(3H)-one] | 1.77 | 34 |  |
| C=CC(=O)N1CCN2c3ncnc4cc(-c5cccc(NC(C)=O)c5)c(Cl)c(c34)OC[C@@H]2C1 [Example 23, N-{3-[(8aS)-10-Acryloyl-6-chloro-8,8a,9,10,11,12-hexahydropyrazino[2′,1′:3,4][1,4]oxazepino[5,6,7-de]quinazolin-5-yl]phenyl}acetamide] | 8.84 | 20 |  |
| C=CC(=O)N1CCN2c3ncnc4cc(-c5cccc6c5OCCOC6)c(Cl)c(c34)OC[C@@H]2C1 [Example 24, 1-[(8aS)-6-Chloro-5-(2,3-dihydro-5H-1,4-benzodioxepin-9-yl)-8a,9,11,12-tetrahydropyrazino[2′,1′:3,4][1,4]oxazepino[5,6,7-de]quinazolin-10(8H)-yl]prop-2-en-1-one] | 4.41 | 27 |  |
| C=CC(=O)N1CCN2c3ncnc4cc(-c5c(F)cccc5OC)c(Cl)c(c34)OC[C@@H]2C1 [Example 25, 1-[(8aS)-6-Chloro-5-(2-fluoro-6-methoxyphenyl)-8a,9,11,12-tetrahydropyrazino[2′,1′:3,4][1,4]oxazepino[5,6,7-de]quinazolin-10(8H)-yl]prop-2-en-1-one] | 0.616 | 89 |  |
| C=CC(=O)N1CCN2c3ncnc4cc(-c5cccc(F)c5OC)c(Cl)c(c34)OC[C@@H]2C1 [Example 26, 1-[(8aS)-6-Chloro-5-(3-fluoro-2-methoxyphenyl)-8a,9,11,12-tetrahydropyrazino[2′,1′:3,4][1,4]oxazepino[5,6,7-de]quinazolin-10(8H)-yl]prop-2-en-1-one] | 2.06 | 71 |  |
| C=CC(=O)N1CCN2c3ncnc4cc(-c5cccc(OC)c5O)c(Cl)c(c34)OC[C@@H]2C1 [Example 27, 1-[(8aS)-6-Chloro-5-(2-hydroxy-3-methoxyphenyl)-8a,9,11,12-tetrahydropyrazino[2′,1′:3,4][1,4]oxazepino[5,6,7-de]quinazolin-10(8H)-yl]prop-2-en-1-one] | 3.03 | 73 |  |
| C=CC(=O)N1CCN2c3ncnc4cc(-c5cccc6c5CCCOC6)c(Cl)c(c34)OC[C@@H]2C1 [Example 28, 1-[(8aS)-6-Chloro-5-(1,3,4,5-tetrahydro-2-benzoxepin-6-yl)-8a,9,11,12-tetrahydropyrazino[2′,1′:3,4][1,4]oxazepino[5,6,7-de]quinazolin-10(8H)-yl]prop-2-en-1-one] | 9.93 | 26 |  |
